Assay results published in patent publication US6664231B1, “Anti-fungal peptides” (priority 1993, dated 2003).
Read-outs that look alike come from different tables or passages of the source. Square brackets hold non-standard residues; d marks the D form. Ends that are not written are not given here. Peptide text beside a SMILES is read from it. * marks the point of attachment. Phe(4-NH2) = Nc1ccc(C[C@H](N)C(=O)O)cc1; pGlu = O=C1CC[C@@H](C(=O)O)N1; Octanoyl = CCCCCCCC(=O)*; Dab = NCC[C@H](N)C(=O)O

What was measured:
[1] = tested on: C. albicans (CA-1, Strain SLU-1); assay: Radial diffusion assay; type: cell-based, Candida albicans; conditions: pmoles of peptide added to well to achieve a 30 mm^2 zone, PROBIT analysis, crude or purified (P′) peptide
Method in brief: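 Yeast at 1×10^6 CFU/mL in agarose underlayer (3% Sabouraud, 10 mM sodium phosphate pH 7.4); 2-fold peptide dilutions in D-PBS from ~1 mg/mL loaded into wells, 3 h at 37° C, then nutrient overlayer overnight. Value: pmol/well giving 30 mm^2 net clear zone, by PROBIT regression.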

[2] = Serum stability, anti-fungal activity after serum incubation by radial diffusion bioassay; type: in vitro ADME, rat or human serum; conditions: Activity in Serum t ½ (hr.)
Experimental: (§1) For these serum stability experiments, peptides were prepared by solid phase peptide sythesis and purified to 94% or greater purity as described in Example 1. Blood was collected from metaphane anesthesized rats by aortic bleed into Vacutainer™ tubes and allowed to clot at room temperature for approximately 30 minutes, then centrifuged at 3000 rpm (about 1000×g) for 10 minutes at room temperature and the serum aspirated. In addition, frozen human serum (North American Biologics, Inc., Miami, Fla., cat. no. 2140, lot no. 94115) was thawed at room temperature and filtered through a 0.45 μm membrane before use.
(§2) A 1 mg/mL solution of an exemplary XMP peptide to be tested was added to an equal volume of either rat or human serum described above and maintained at 37° C. At 0, 1, 2, and 4 hours, 100 μL were removed and processed by solid phase extraction for HPLC analysis as follows. Serum samples were prepared for HPLC using C-18 Sep-Pak cartridges (1 mL cartridge with 100 mg of sorbent, Waters Corp., Milford, Mass.). One hundred μL of serum sample were added to an equal volume of 1% TFA and mixed for 30 seconds on a Vortex mixer. The sample was then applied to a C-18 Sep-Pak cartridge that had been conditioned by washing with 1 mL of methanol followed by 1 mL Milli-Q water. Weakly reed components were eluted by washing with 1 mL of 0. 1% TFA. The bound peptide was eluted with two volumes of 250 μL 80% acetonitrile/0.065% TFA.
The peptides identified and purified after serum incubation as described above were subjected to N-terminal peptide sequencing performed on an Applied Biosystems Model 477A/120A sequencer and to electrospray ionization mass spectrometry (ESI/MS) performed using a VG Biotech Bio-Q Mass Spectrometer. In addition, the peptides identified and purified after serum incubation as described above were also tested for their anti-fungal activity in a radial diffusion bioassay with Candida albicans SLU-1 strain as described in Example 2.

[3] = in vitro; type: in vitro ADME, rat or human serum; conditions: serum, half-life of peptide in serum as detected by HPLC analysis; read-out: HPLC Peptide in Serum t ½ (converted)
Experimental: as §1, §2
The material eluted from the Sep-Pak cartridge was analyzed on a Michrom Ultaafast Microprotein Analyzer equipped with a 150 mm×1 mm, 5μ particle, 300 Å pore C-8 Zorbax column. The column oven was set to 40° C., the flow rate was 100 μL/minute, and injection volumes were typically 5-10 μL. HPLC was performed using 5% acetonitrile/0.1% TFA in water as mobile phase A, and 80% acetonitrile/0.065% TFA as mobile phase B. The eluate was monitored spectiophotometrically at 214 nm. Peptide standards were dissolved in mobile phase A at 0. 1 mg/mL. The gradient was 25-35% B/10 minutes followed by a 5 minute wash step of 100% B and reequilibration at 25% B for 10 minutes.

[4] = tested on: mouse RAW 264.7 cells incubated with E. coli O113 LPS; conditions: RAW 264.7 cells with E. coli O113 LPS; concentration reversing LPS growth inhibition by 50%
Experimental: (§3) An in vitro LPS neutralization screening assay for evaluation of Domain III derived peptides was developed (as described in co-owned and co-pending U.S. patent application Ser. No. 08/306,473) which provides both a measure of efficacy of each peptide (EC50) and of the toxicity/growth inhibition of each peptide (IC50).
(§4) The cells were counted and their concentration adjusted to 2×10^5 cells/mL and 100 μL aliquots were added to each well of a 96-well microtitre plate. […] This incubation was performed in the absence or presence of peptides in varying concentrations between 25 ng/mL and 50 μg/mL. […] Cell proliferation was quantitatively measured by the addition of 1 μCi/well [^3H]-thymidine 5 hours after the time of initiation of the assay. After the 15-hour incubation, labeled cells were harvested onto glass fiber filters with a cell harvester (Inotech Biosystems, INB-384, Sample Processing and Filter Counting System, Lansing, Mich.).

[5] = tested on: mouse RAW 264.7 cells
Experimental: as §3, §4

[6] = RAW 264.7 cell growth inhibited by 50%

Row | Compound | C. albicans pmol/30 mm^2 zone [1] | half-life at 0.5 mg/mL [2] [h] | In Vitro LPS Neutralization EC50 [4] | IC50 (toxicity/growth inhibition of peptide) [5, 6] | also measured
1 | CC[C@H](C)[C@H](NC(=O)[C@H](CC(C)C)NC(=O)[C@H](Cc1ccc(N)cc1)NC(=O)CNC(=O)[C@@H](NC(=O)[C@H](CCCCN)NC(=O)[C@H](CO)NC(=O)[C@@H](N)CCCCN)C(C)C)C(=O)N[C@@H](CCC(N)=O)C(=O)N[C@@H](CC(C)C)C(=O)N[C@@H](Cc1ccccc1)C(=O)N[C@@H](Cc1c[nH]cn1)C(=O)N[C@@H](CCCCN)C(=O)N[C@@H](CCCCN)C(N)=O [XMP.133] (H-KSKVG[Phe(4-NH2)]LIQLFHKK-NH2) | 284 pmol/30 mm^2 zone | 14 | – | – | –
2 | CC[C@H](C)[C@H](NC(=O)[C@H](CC(C)C)NC(=O)[C@H](Cc1c[nH]c2ccccc12)NC(=O)[C@H](CCCCN)NC(=O)[C@H]1CCCN1)C(=O)N[C@@H](CCC(N)=O)C(=O)N[C@@H](CC(C)C)C(=O)N[C@@H](CCCCN)C(=O)N[C@@H](CCCCN)C(N)=O [XMP.334] | 1,449 pmol/30 mm^2 zone | 4.7 | – | – | C. albicans pmol/30 mm^2 zone ([1]; listed as XMP.334P′): 1,065 pmol/30 mm^2 zone; half-life at 0.5 mg/mL [3]: 3.2 h
3 | CC[C@H](C)[C@H](NC(=O)[C@H](CC(C)C)NC(=O)[C@H](Cc1c[nH]c2ccccc12)NC(=O)[C@H](CCCN)NC(=O)[C@@H](N)CCCN)C(=O)N[C@@H](CCC(N)=O)C(=O)N[C@@H](CC(C)C)C(=O)N[C@@H](CCCN)C(=O)N[C@@H](CCCN)C(N)=O [XMP.338] | 1,194 pmol/30 mm^2 zone | 4.7 | – | – | –
4 | CC[C@H](C)[C@H](NC(=O)[C@H](CC(C)C)NC(=O)[C@H](Cc1c[nH]c2ccccc12)NC(=O)[C@@H](N)CCCCN)C(=O)N[C@@H](CCN)C(=O)N[C@@H](CC(C)C)C(=O)N[C@@H](Cc1ccccc1)C(=O)N[C@@H](Cc1c[nH]cn1)C(=O)N[C@@H](CCCCN)C(=O)N[C@@H](CCCCN)C(N)=O [XMP.371] (H-KWLI[Dab]LFHKK-NH2) | 843 pmol/30 mm^2 zone | 0.9 | – | – | C. albicans pmol/30 mm^2 zone ([1]; listed as XMP.371P′): 523 pmol/30 mm^2 zone
5 | CCCCCCCC(=O)N[C@@H](CCCCN)C(=O)N[C@@H](CCCCN)C(=O)N[C@@H](Cc1c[nH]c2ccccc12)C(=O)N[C@@H](C)C(=O)N[C@H](C(=O)N[C@@H](CCC(N)=O)C(=O)N[C@@H](CC(C)C)C(=O)N[C@@H](CCCCN)C(=O)N[C@@H](CCCCN)C(N)=O)[C@@H](C)CC [XMP.410] (Octanoyl-KKWAIQLKK-NH2) | 599 pmol/30 mm^2 zone | 2.9 | >25 µg/mL | NA (NA for IC50 means no evidence of decreased RAW cell growth at up to 50 μg/ml) | –
6 | Ac-PWLIQLFHKK-NH2 [XMP.356] | 550 pmol/30 mm^2 zone | 0.9 | – | – | –
7 | H-KKKWAIQLKK-NH2 [XMP.377] | 146 pmol/30 mm^2 zone | 1.8 | – | – | –
8 | H-KKKWLIQLKK-NH2 [XMP.348] | 284 pmol/30 mm^2 zone | 5.5 | – | – | –
9 | H-KKLLLLLKK-NH2 [XMP.385] | 127 pmol/30 mm^2 zone | 2.7 | – | – | –
10 | H-KKLQLLLKK-NH2 [XMP.381] | 391 pmol/30 mm^2 zone | 0.8 | – | – | –
11 | H-KKWLIQLFHKP-NH2 [XMP.358] | 550 pmol/30 mm^2 zone | 1.6 | – | – | –
12 | H-KKWLIQLFKK-NH2 [XMP.351] | 385 pmol/30 mm^2 zone | 0.4 | – | – | –
13 | H-KVKWLIQLF-NH2 [XMP.295P] | – | – | 3.69 ± 0.12 µg/mL | – | IC50 (toxicity/growth inhibition of peptide) [5]: >25 µg/mL
14 | H-KVKWLIQLFHK-NH2 [XMP.288P] | – | – | 0.87 ± 0.06 µg/mL | – | IC50 (toxicity/growth inhibition of peptide) [5]: >25 µg/mL
15 | H-KVPWLIQLFHKK-NH2 [XMP.392P] | – | – | 24.03 ± 2.67 µg/mL | NA (NA for IC50 means no evidence of decreased RAW cell growth at up to 50 μg/ml) | –
16 | H-KWLIQLFHKP-NH2 [XMP.357] | 204 pmol/30 mm^2 zone | 0.8 | – | – | –
17 | H-PWLIQLFHKK-NH2 [XMP.355P] | – | – | 1.08 ± 0.05 µg/mL | NA (NA for IC50 means no evidence of decreased RAW cell growth at up to 50 μg/ml) | –
18 | H-RRWLIQLRR-NH2 [XMP.336P] | – | – | NA (NA for EC50 means no evidence neutralization of LPS at up to 50 μg/ml) | NA (NA for IC50 means no evidence of decreased RAW cell growth at up to 50 μg/ml) | –
19 | H-SKWAIQLKK-NH2 [XMP.409P] | – | – | NA (NA for EC50 means no evidence neutralization of LPS at up to 50 μg/ml) | NA (NA for IC50 means no evidence of decreased RAW cell growth at up to 50 μg/ml) | –
20 | KKKWAIQLKK-NH2 [XMP.377P] | – | – | NA (NA for EC50 means no evidence neutralization of LPS at up to 50 μg/ml) | NA (NA for IC50 means no evidence of decreased RAW cell growth at up to 50 μg/ml) | –
21 | KKLLLLQKK-NH2 [XMP.384P] | – | – | NA (NA for EC50 means no evidence neutralization of LPS at up to 50 μg/ml) | NA (NA for IC50 means no evidence of decreased RAW cell growth at up to 50 μg/ml) | –
22 | KKPWAIQLKK-NH2 (C-terminus assumed) [XMP.379P] | – | – | NA (NA for EC50 means no evidence neutralization of LPS at up to 50 μg/ml) | NA (NA for IC50 means no evidence of decreased RAW cell growth at up to 50 μg/ml) | –
23 | KKWAIQLKK-NH2 (C-terminus assumed) [XMP.344P] | – | – | >25 µg/mL | NA (NA for IC50 means no evidence of decreased RAW cell growth at up to 50 μg/ml) | –
24 | KKWLIQLFKK-NH2 [XMP.351P] | – | – | 8.47 ± 0.71 µg/mL | NA (NA for IC50 means no evidence of decreased RAW cell growth at up to 50 μg/ml) | –
25 | KWAIQLFHKK-NH2 [XMP.386P] | – | – | 9.75 ± 1.02 µg/mL | NA (NA for IC50 means no evidence of decreased RAW cell growth at up to 50 μg/ml) | –
26 | PWAIQLFHKK-NH2 (C-terminus assumed) [XMP.387P] | – | – | 15.53 ± 2.18 µg/mL | NA (NA for IC50 means no evidence of decreased RAW cell growth at up to 50 μg/ml) | –
27 | XMP.341P ([pGlu][pGlu]WLIQL[pGlu][pGlu]; not fully specified) | – | – | >50 µg⁻¹ mL⁻¹ | NA/NA (NA for IC50 means no evidence of decreased RAW cell growth at up to 50 μg/ml) | –
